Data: patent publication US20210106550A1, “COMPOSITIONS FOR PREVENTING OR TREATING COGNITIVE IMPAIRMENT-RELATED DISEASE COMPRISING MUMEFURAL” (KOREA INSTITUTE OF ORIENTAL MEDICINE, priority 2018, published 2021)

Tests used:
Assay type in all cases: in vivo, Wistar rats
dementia-mimic rats = assay: water maze test in dementia-mimic animal model
Method: (§1) Specifically, 12-week-old Wister rats (350 g to 380 g) were used for the experiments. After obtaining the experimental animals, appearance was visually inspected and then normal symptoms were observed during a 7-day acclimation period. Healthy animals were selected therefrom and assigned to groups by a random method according to body weight ranges, and then experiments were performed. During the acclimation and experiment, a constant breeding environment was maintained under the conditions of a temperature of 23±3° C., a relative humidity of 50±10%, a ventilation frequency of 12 times to 16 times per hour, a 12-hour light-dark cycle (light on at 7:00, light off at 19:00), and an intensity of illumination of 150 Lx to 300 Lx. Experiments were performed using sterilized instruments, and the rats were allowed free access to tap water and a solid feed (PMI nutrition, USA) for 24 hours.
(§2) In order to construct a vascular dementia-mimic animal model, chronic cerebral hypoperfusion was induced by bilateral common carotid artery occlusion (2VO, hereinafter referred to as “brain damage (BCCA0)”) (Wakita et al., 1994). The rats were anesthetized with 4% isoflurane, and the anesthesia was maintained by 1.5% isoflurane during the operation. The central neck was incised to expose the bilateral common carotid artery carefully so as not to cause damage to the vagal nerve. Ligation was performed twice with No. 3 silk, thereby constructing an animal model in which dementia was induced by brain damage.
(§3) After 21 days from the BCCA0 operation, the Wistar rats were orally administered with mumefural for 42 days. The rats were divided into 5 groups listed in Table 1 below, and controls were orally administered with saline. Different concentrations of mumefural were set in the oral administration as low concentration (20 mg/kg), medium concentration (40 mg/kg), and high concentration (80 mg/kg).
In order to investigate effects of mumefural on enhancing spatial memory in the dementia-mimic animal model, a water maze test was performed after administering mumefural in the same manner as in Example 1 above.
Specifically, a circular water tank (diameter: 180 cm, height: 58 cm) was filled with water at a temperature of 26±2° C. up to 2 cm above a marked platform, screen walls were set up on all sides of the water tank to prevent light from coming through, and a pigment was added thereto to make the water opaque. In addition, labels were attached to given positions (diameter: 12 cm, height: 33.5 cm) of the screen walls to give clues for the rats to search for the marked platform. Spatial memory training was performed […] for 8 days every morning (from 9:00 a.m.) once per day 8 times in total. Time taken for the rats to find the hidden platform and escape latency thereof were measured and regarded as markers of memory, and reduced time of every group was compared every day. Thereafter, a water maze test was performed after 8 days from the training. In this test, time taken for the rats to first find the hidden platform was measured and used as a marker of memory. That is, a shorter time is regarded as more improved recognition ability.

[1] = test system: myelin basic protein (MBP); assay: immunohistostaining of MBP protein (degraded myelin) in white matter and hippocampus; settings: compared with the negative control, FIGS. 9A, 9B
Method: (§4) Specifically, 12-week-old Wister rats (350 g to 380 g) were used for the experiments. After obtaining the experimental animals, appearance was visually inspected and then normal symptoms were observed during a 7-day acclimation period. Healthy animals were selected therefrom and assigned to groups by a random method according to body weight ranges, and then experiments were performed. […]
In order to investigate the effects on normalization of degraded myelin in the dementia-mimic animal model, mumefural was administered in the same manner as in Example 1 above, and then degradation degrees of oligodendrocytes was analyzed in the hippocampus, fornix, medial septum, corpus callosum, and fimbria hippocampi.
Specifically, the brain was excised from each of the dementia-mimic rats after administration of mumefural was completed and sectioned into slices with a thickness of 40 μm. Subsequently, oligodendrocytes in the hippocampus, white matter fornix, medial septum, corpus callosum, and fimbria hippocampi were detected using myelin basic protein (MBP) that is expressed in the myelin sheath of axons by oligodendrocytes. The slices were stained by immunohistostaining using anti-MBP antibody as a primary antibody and horse anti-mouse antibody as a secondary antibody, and anti-MBP positive cell responses were detected.

[2] = test system: NMDAR2A and NMDAR2B proteins; assay: western blot of post-synaptic receptors in hippocampus; settings: compared with the negative control; FIGS. 12A, 12B
Method: as §4
In order to investigate effects of mumefural on normalization of damaged hippocampus in the dementia-mimic animal model, mumefural was administered in the same manner as in Example 1, and then amounts of post-synaptic receptors in the hippocampus were analyzed by examining expression levels of N-methyl-D-aspartate receptor 2A (NMDAR2A) and N-methyl-D-aspartate receptor 2B (NMDAR2B) proteins.
(§5) Specifically, the hippocampus was excised from each of the dementia-mimic rats after administration of mumefural was completed, and the proteins were extracted therefrom. Expression levels of the NMDAR2A and NMDAR2B proteins were analyzed by western blotting. β-Actin was used as a loading control.

[3] = test system: BDNF and phospho-CREB proteins; assay: western blot of memory-related factors in hippocampus
Method: as §1, §2, §3
In order to investigate effects of mumefural on normalization of damaged hippocampus in the dementia-mimic animal model, mumefural was administered in the same manner as in Example 1, and then expression levels of memory-related factors in the hippocampus were analyzed.
as §5, with “and” for “and the”, “brain-derived neurotrophic factor (BDNF), phospho-cAMP response element-binding protein (phospho-CREB),” for “the NMDAR2A”, “cAMP response element-binding protein (CREB)” for “NMDAR2B proteins”

[4] = test system: P2X7R, TLR4, MyD88, NLRP3, caspase1, IL-1β, IL-18, phospho-STAT3, and NF-κB (p65, p50) proteins; assay: western blot of neurological inflammation proteins in hippocampus
Method: as §1, §2, §3
In order to investigate effects of mumefural on reduction of neurological inflammation in the dementia-mimic animal model, mumefural was administered in the same manner as in Example 1, and then expression levels of P2X purinoceptor 7 (P2X7R), toll-like receptor 4 (TLR4), myeloid differentiation primary response 88 (MyD88), nucleotide-binding oligomerization domain-like receptor protein 3 (NLRP3), caspase1, interleukin (IL)-1β, IL-18, phospho-signal transducer and activator of transcription 3 (phospho-STAT3), and NF-κB (p65, p50) proteins were measured in the hippocampus. Meanwhile, these proteins provoke inflammation of nerve cells, causing damage to the brain and resulting in diseases such as dementia.
Specifically, the hippocampus was excised from each of the dementia-mimic rats after administration of mumefural was completed, and proteins were extracted therefrom. Expression levels of the proteins were analyzed by western blotting. β-Actin and LaminB1 were used as loading controls.

[5] = 20 mg/kg, 40 mg/kg, and 80 mg/kg oral, relative to normal control
[6] = compared with the negative control, FIGS. 14A, 14B
[7] = western blot, compared to the negative control, FIGS. 17A, 17B

Question: What does the source list for `O=Cc1ccc(COC(=O)CC(O)(CC(=O)O)C(=O)O)o1` (stereo not shown) [mumefural]?
Answer: latency to find the hidden platform vs normal control (dementia-mimic rats; BCCAo rats, 20 mg/kg, 40 mg/kg, and 80 mg/kg oral, compared with normal control, FIG. 1): high latency similar to that of the normal control; time to first arrive at the hidden platform vs normal control (dementia-mimic rats; BCCAo rats, 40 mg/kg and 80 mg/kg oral, compared with normal control, FIG. 2): short time similar to that of the normal control; time to first arrive at the hidden platform (dementia-mimic rats; BCCAo rats, oral mumefural 42 days, compared to the negative control, FIG. 2): reduced; latency to find the hidden platform (escape latency) (dementia-mimic rats; BCCAo rats, oral mumefural 42 days, compared with the negative control (saline), FIG. 1): increased; average swim speeds (dementia-mimic rats; among the groups (20, 40, 80 mg/kg, controls), FIG. 3): no difference; myelin degradation (MBP immunohistostaining) [1]: decreased; expression level of NMDAR2A protein in hippocampus [2]: significantly increased; expression level of NMDAR2B protein in hippocampus [2]: significantly increased; expression level of BDNF protein vs normal control [3, 5]: higher expression levels than that of the normal control by about three times or more; expression level of phospho-CREB protein vs normal control [3, 5]: higher expression levels than that of the normal control by about three times or more; expression level of BDNF protein in hippocampus [3, 6]: significantly increased; expression level of phospho-CREB protein in hippocampus [3, 6]: significantly increased; neurological inflammation protein expression, effect vs normal control ([4]; 20 mg/kg, 40 mg/kg, and 80 mg/kg oral): effects similar to or superior to those of the normal control; expression level of IL-1β protein in hippocampus [4, 7]: decreased; expression level of IL-18 protein in hippocampus [4, 7]: decreased; expression level of MyD88 protein in hippocampus [4, 7]: decreased; expression level of NLRP3 protein in hippocampus [4, 7]: decreased; expression level of P2X7R protein in hippocampus [4, 7]: decreased; expression level of TLR4 protein in hippocampus [4, 7]: decreased; expression level of caspase1 protein in hippocampus [4, 7]: decreased; expression level of phospho-STAT3 protein in hippocampus ([4]; western blot, compared to the negative control, FIGS. 18A, 18B): decreased; expression level of NF-κB (p65, p50) proteins in hippocampus ([4]; western blot, compared to the negative control, FIGS. 19A, 19B): decreased
